# Patent US9371570B2, “Mutant calreticulin for the diagnosis of myeloid malignancies” (CeMM—FORSCHUNGSZENTRUM FÜR MOLEKULARE MEDIZIN GmbH, priority 2013, dated 2016)
# Tested on: Ba/F3 cells expressing the empty vector (GFP), CALR wild type (CALR wt-GFP) or CALR mutant (CALR del52-GFP)
# Assay: Sensitivity of Ba/F3 cells to SAR302503 (CellTiter-Glo cell viability)
# Type: cell-based, murine
# Details: Ba/F3 CALR wild type vs CALR 52 base pair deletion mutant; 48 hours; dilution series, highest concentration 40 μM; 10 ng/ml interleukin-3; listed as JAK2 kinase inhibitor
# Experimental: FIG. 7: The sensitivity of Ba/F3 cells to SAR302503. Ba/F3 cells expressing the empty vector (GFP), CALR wild type (CALR wt-GFP) or CALR mutant (CALR del52-GFP) were analyzed by defining cell viability after 48 hours in presence of […] SAR302503. For relative viability, relative luminescence units were normalized to the DMSO control. Error bars represent standard error of the mean.
# The retrovirus was generated and cells were transduced as described before (Zuber et al, 2013). Briefly, PlatE cells (75% confluent in a 10 cm dish) were transfected with 20 μg of the respective viral vector using the Calcium Phosphate Transfection Kit (Sigma #CAPHOS). The medium was changed after 24 hours and viral supernatant was collected at 36, 40, 44 and 60 hours after transfection. […] The cells were analyzed for transduction efficiency by flow cytometry, 48 hours after the final transduction step. The GFP positive cells were sorted by FACS and the sorting efficiency was analyzed by flow cytometry.
# To define the sensitivity to the inhibitor SAR302503 (Sanofi), Ba/F3 cells were plated in 96-well plates at 25000 cells per well in triplicates on a dilution series of SAR302503 (highest concentration 40 μM) and in presence of 10 ng/ml interleukin-3. After 48 hours cell viability was determined by the CellTiter-Glo® Luminescent Cell Viability Assay (Promega).
structure (smiles),measurement,value
Cc1cnc(Nc2ccc(OCCN3CCCC3)cc2)nc1Nc1cccc(S(=O)(=O)NC(C)(C)C)c1 [SAR302503],sensitivity of cells to the JAK2 kinase inhibitor SAR302503 (relative cell viability),suppressed equally
